Data reported in patent publication US20230074545A1, “TREATMENT OF CANCER WITH CDK12/13 INHIBITORS” (Kinnate Biopharma Inc., priority 2019, published 2023).

Experiments:
[1] = target: T1, SIK3 (Homo sapiens, UniProt Q9Y2K2); experiment: Radiometric kinase panel; type: biochemical
T1 construct: either as full-length or enzymatically active fragments; purchased ProQinase GmbH (Reaction Biology)
Description: (§1) The compounds 1-5 (see Table 1) were assayed for kinase activity at ProQinase (ProQinase GmbH, Reaction Biology; Freiburg, Germany) using their commercially available radiometric kinase assay services. Briefly, the compounds were provided as solids and were dissolved to 1×10^−03 M/100% DMSO stock solutions on the day of assay. All protein kinases were provided by ProQinase and were expressed in Sf9 insect cells or in E. coli as recombinant GST-fusion proteins or His-tagged proteins, either as full-length or enzymatically active fragments. All kinases were produced from human cDNAs and purified by either GSH-affinity chromatography or immobilized metal. The purity of the protein kinases was examined by SDS-PAGE/Coomassie staining, the identity was checked by mass spectroscopy. A radiometric protein kinase assay (^33PanQinase® Activity Assay) was used for measuring the kinase activity of the protein kinase. All kinase assays were performed in 96-well FlashPlates™ from PerkinElmer (Boston, Mass., USA) in a 50 microliter reaction volume. The reaction cocktail was pipetted in four steps in the following order: 1) 25 microliter of assay buffer (standard buffer/[gamma-^33P]-ATP); 2) 10 microliter of ATP solution (in H2O); 3) 5 microliter of test compound (in 10% DMSO); 4) 10 microliter of enzyme/substrate mixture.
(§2) Compound 4 was analyzed for selectivity against a panel of other kinases at ProQinase using their commercially available radiometric kinase assay services and the methods described in Example 1.

[2] = target: T2, AXL (Homo sapiens, UniProt P30530); experiment: Radiometric kinase panel; type: biochemical
T2 construct: either as full-length or enzymatically active fragments; purchased ProQinase GmbH (Reaction Biology)
Description: as §1, §2

[3] = target: T3, ACVRL1 (Homo sapiens, UniProt P37023); experiment: Radiometric kinase panel; type: biochemical
T3 construct: either as full-length or enzymatically active fragments; purchased ProQinase GmbH (Reaction Biology)
Description: as §1, §2

[4] = target: T4, SRPK2 (Homo sapiens, UniProt P78362); experiment: Radiometric kinase panel; type: biochemical
T4 construct: purchased ProQinase GmbH (Reaction Biology)
Description: as §1, §2

[5] = target: T5, MEK1 (Homo sapiens, UniProt Q02750); experiment: Radiometric kinase panel; type: biochemical
T5 construct: either as full-length or enzymatically active fragments; purchased ProQinase GmbH (Reaction Biology); host or cells: Sf9 insect cells or E. coli
Description: as §1, §2

[6] = target: T6, LIMK2 (Homo sapiens, UniProt P53671); experiment: Radiometric kinase panel; type: biochemical
T6 construct: either as full-length or enzymatically active fragments; purchased ProQinase GmbH (Reaction Biology)
Description: as §1, §2

[7] = target: T7, HIPK2 (Homo sapiens, UniProt Q9H2X6); experiment: Radiometric kinase panel; type: biochemical
T7 construct: purchased ProQinase GmbH (Reaction Biology)
Description: as §1, §2

[8] = target: T8, TLK2 (Homo sapiens, UniProt Q86UE8); experiment: Radiometric kinase panel; type: biochemical
T8 construct: either as full-length or enzymatically active fragments; purchased ProQinase GmbH (Reaction Biology)
Description: as §1, §2

[9] = target: T9, PKCnu (Homo sapiens, UniProt O94806); experiment: Radiometric kinase panel; type: biochemical
T9 construct: either as full-length or enzymatically active fragments; purchased ProQinase GmbH (Reaction Biology)
Description: as §1, §2

[10] = target: T10, MARK3 (Homo sapiens, UniProt P27448); experiment: Radiometric kinase panel; type: biochemical
T10 construct: either as full-length or enzymatically active fragments; purchased ProQinase GmbH (Reaction Biology); host or cells: Sf9 insect cells or E. coli
Description: as §1, §2

[11] = target: T11, PRK2 (Homo sapiens, UniProt Q16513); experiment: Radiometric kinase panel; type: biochemical
T11 construct: either as full-length or enzymatically active fragments; purchased ProQinase GmbH (Reaction Biology)
Description: as §1, §2

[12] = target: T12, HIPK3 (Homo sapiens, UniProt Q9H422); experiment: Radiometric kinase panel; type: biochemical
T12 construct: either as full-length or enzymatically active fragments; purchased ProQinase GmbH (Reaction Biology)
Description: as §1, §2

[13] = target: T13, EPHA5 (Homo sapiens, UniProt P54756); experiment: Radiometric kinase panel; type: biochemical
T13 construct: either as full-length or enzymatically active fragments; purchased ProQinase GmbH (Reaction Biology)
Description: as §1, §2

[14] = target: T14, PRKD2 (Homo sapiens, UniProt Q9BZL6); experiment: Radiometric kinase panel; type: biochemical
T14 construct: either as full-length or enzymatically active fragments; purchased ProQinase GmbH (Reaction Biology); host or cells: Sf9 insect cells or E. coli
Description: as §1, §2

[15] = target: T15, MYLK (Homo sapiens, UniProt Q15746); experiment: Radiometric kinase panel; type: biochemical
T15 construct: either as full-length or enzymatically active fragments; purchased ProQinase GmbH (Reaction Biology)
Description: as §1, §2

[16] = target: T16, RPS6KA6 (Homo sapiens, UniProt Q9UK32); experiment: Radiometric kinase panel; type: biochemical
T16 construct: purchased ProQinase GmbH (Reaction Biology)
Description: as §1, §2

[17] = target: T17, TTBK2 (Homo sapiens, UniProt Q6IQ55); experiment: Radiometric kinase panel; type: biochemical
T17 construct: either as full-length or enzymatically active fragments; purchased ProQinase GmbH (Reaction Biology)
Description: as §1, §2

[18] = target: T18, PRKG1 (Homo sapiens, UniProt Q13976); experiment: Radiometric kinase panel; type: biochemical
T18 construct: either as full-length or enzymatically active fragments; purchased ProQinase GmbH (Reaction Biology)
Description: as §1, §2

[19] = target: T19, JNK1 (Homo sapiens, UniProt P45983); experiment: Radiometric kinase panel; type: biochemical
T19 construct: either as full-length or enzymatically active fragments; purchased ProQinase GmbH (Reaction Biology)
Description: as §1, §2

[20] = target: T20, CDK5/p25NCK (Homo sapiens, UniProt Q00535); experiment: Radiometric kinase panel; type: biochemical
T20 construct: either as full-length or enzymatically active fragments; purchased ProQinase GmbH (Reaction Biology)
Description: as §1, §2

[21] = target: T21, STK33 (Homo sapiens, UniProt Q9BYT3); experiment: Radiometric kinase panel; type: biochemical
T21 construct: either as full-length or enzymatically active fragments; purchased ProQinase GmbH (Reaction Biology)
Description: as §1, §2

[22] = target: T22, CDK6/CycD3 (Homo sapiens, UniProt Q00534); experiment: Radiometric kinase panel; type: biochemical
T22 construct: either as full-length or enzymatically active fragments; purchased ProQinase GmbH (Reaction Biology); host or cells: Sf9 insect cells or E. coli
Description: as §1, §2

[23] = target: T23, PHKG1 (Homo sapiens, UniProt Q16816); experiment: Radiometric kinase panel; type: biochemical
T23 construct: either as full-length or enzymatically active fragments; purchased ProQinase GmbH (Reaction Biology)
Description: as §1, §2

[24] = target: T24, DYRK2 (Homo sapiens, UniProt Q92630); experiment: Radiometric kinase panel; type: biochemical
T24 construct: purchased ProQinase GmbH (Reaction Biology); host or cells: Sf9 insect cells or E. coli (not specified per kinase)
Description: as §1, §2

[25] = test system: RNA polymerase II; experiment: Phosphorylation of RNA polymerase II (pS2/S2) in HCC70 xenograft; type: in vivo, CB-17 SCID mice; details: intravenous; compound 4 20 or 25 mg/kg, compound 5 10 or 25 mg/kg; 0.5, 6 and 24 hours after the dose
Description: The ability of compound 4 and compound 5 to inhibit phosphorylation of RNA polymerase II at the S2 unit was analyzed in a mouse xenograft model of triple-negative breast cancer. CB-17 SCID mice were inoculated with the HCC70 cells as the in vivo model for triple negative breast cancer. Each mouse was inoculated subcutaneously on the right flank with HCC70 tumor cells (5×106) in 0.1 mL of RPMI-1640 Medium and Matrigel mixture (1:1 ratio) for tumor development. The treatment started when the mean tumor size reached approximately 100-150 mm^3. Mice were treated intravenously with vehicle only, 20 mg/kg of compound 4, 25 mg/kg of compound 4, 10 mg/kg of compound 5, or 25 mg/kg of compound 5 for 2 hours. Measurements were taken at 0.5 hours, 6 hours and 24 hours after the dose. The amount of phosphorylated RNA polymerase II and the total amount of RNA polymerase II was analyzed. The values were normalized by taking the ratio of the phosphorylated RNA polymerase II to the total RNA polymerase II (pS2/S2).

T24 sequence (Q92630 whole entry): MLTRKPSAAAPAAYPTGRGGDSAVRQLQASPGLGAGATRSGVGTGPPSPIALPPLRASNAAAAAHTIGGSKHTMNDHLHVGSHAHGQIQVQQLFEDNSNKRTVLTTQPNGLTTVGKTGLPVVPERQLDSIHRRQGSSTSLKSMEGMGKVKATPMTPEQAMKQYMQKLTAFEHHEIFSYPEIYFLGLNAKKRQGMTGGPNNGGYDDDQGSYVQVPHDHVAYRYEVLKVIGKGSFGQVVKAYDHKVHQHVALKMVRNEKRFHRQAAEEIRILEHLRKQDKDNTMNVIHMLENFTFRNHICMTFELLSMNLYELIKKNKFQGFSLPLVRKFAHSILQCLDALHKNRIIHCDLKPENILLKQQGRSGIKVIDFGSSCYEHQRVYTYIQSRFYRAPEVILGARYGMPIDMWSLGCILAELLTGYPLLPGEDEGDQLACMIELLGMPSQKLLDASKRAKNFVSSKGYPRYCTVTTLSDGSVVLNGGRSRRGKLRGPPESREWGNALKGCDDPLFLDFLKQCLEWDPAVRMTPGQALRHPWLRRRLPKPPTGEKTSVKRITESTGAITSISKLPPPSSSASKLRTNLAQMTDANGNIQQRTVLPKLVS
T20 sequence (Q00535 whole entry, the tested form may be a part): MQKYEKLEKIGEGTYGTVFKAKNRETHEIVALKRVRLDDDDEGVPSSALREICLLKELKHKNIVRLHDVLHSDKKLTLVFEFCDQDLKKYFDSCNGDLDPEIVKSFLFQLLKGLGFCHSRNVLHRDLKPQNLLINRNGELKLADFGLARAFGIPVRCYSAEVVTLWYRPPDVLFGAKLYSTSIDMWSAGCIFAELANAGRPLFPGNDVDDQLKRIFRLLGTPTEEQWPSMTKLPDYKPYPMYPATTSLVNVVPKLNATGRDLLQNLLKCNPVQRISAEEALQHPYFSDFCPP
T20 sequence (Q15078 99-307 partner limits assumed): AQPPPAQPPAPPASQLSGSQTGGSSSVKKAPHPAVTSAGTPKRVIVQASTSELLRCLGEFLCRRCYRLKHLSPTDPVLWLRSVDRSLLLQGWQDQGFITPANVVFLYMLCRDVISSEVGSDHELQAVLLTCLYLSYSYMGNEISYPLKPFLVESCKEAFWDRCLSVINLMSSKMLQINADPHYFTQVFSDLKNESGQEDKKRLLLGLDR
T23 sequence (Q16816 whole entry, the tested form may be a part): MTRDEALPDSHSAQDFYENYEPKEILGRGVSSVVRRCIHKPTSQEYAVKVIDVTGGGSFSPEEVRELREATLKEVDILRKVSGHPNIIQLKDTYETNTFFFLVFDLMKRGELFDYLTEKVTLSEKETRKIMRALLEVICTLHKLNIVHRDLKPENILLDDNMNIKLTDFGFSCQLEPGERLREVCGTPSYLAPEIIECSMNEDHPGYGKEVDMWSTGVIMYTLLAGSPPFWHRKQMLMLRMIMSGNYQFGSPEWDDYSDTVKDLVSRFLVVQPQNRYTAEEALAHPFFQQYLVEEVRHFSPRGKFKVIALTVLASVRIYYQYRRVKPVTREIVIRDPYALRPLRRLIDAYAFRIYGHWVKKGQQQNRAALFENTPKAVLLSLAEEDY
T5 sequence (Q02750 whole entry, the tested form may be a part): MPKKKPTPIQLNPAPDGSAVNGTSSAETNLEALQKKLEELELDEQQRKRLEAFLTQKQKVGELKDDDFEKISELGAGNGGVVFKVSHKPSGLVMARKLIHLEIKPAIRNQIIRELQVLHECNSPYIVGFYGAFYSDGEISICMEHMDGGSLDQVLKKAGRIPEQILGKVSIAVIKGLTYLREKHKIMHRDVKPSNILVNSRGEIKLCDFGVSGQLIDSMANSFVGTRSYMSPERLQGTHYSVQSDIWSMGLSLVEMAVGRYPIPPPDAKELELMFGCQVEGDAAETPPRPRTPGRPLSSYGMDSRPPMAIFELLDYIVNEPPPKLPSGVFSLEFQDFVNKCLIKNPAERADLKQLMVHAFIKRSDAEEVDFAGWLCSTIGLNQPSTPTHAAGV
T16 sequence (Q9UK32 whole entry): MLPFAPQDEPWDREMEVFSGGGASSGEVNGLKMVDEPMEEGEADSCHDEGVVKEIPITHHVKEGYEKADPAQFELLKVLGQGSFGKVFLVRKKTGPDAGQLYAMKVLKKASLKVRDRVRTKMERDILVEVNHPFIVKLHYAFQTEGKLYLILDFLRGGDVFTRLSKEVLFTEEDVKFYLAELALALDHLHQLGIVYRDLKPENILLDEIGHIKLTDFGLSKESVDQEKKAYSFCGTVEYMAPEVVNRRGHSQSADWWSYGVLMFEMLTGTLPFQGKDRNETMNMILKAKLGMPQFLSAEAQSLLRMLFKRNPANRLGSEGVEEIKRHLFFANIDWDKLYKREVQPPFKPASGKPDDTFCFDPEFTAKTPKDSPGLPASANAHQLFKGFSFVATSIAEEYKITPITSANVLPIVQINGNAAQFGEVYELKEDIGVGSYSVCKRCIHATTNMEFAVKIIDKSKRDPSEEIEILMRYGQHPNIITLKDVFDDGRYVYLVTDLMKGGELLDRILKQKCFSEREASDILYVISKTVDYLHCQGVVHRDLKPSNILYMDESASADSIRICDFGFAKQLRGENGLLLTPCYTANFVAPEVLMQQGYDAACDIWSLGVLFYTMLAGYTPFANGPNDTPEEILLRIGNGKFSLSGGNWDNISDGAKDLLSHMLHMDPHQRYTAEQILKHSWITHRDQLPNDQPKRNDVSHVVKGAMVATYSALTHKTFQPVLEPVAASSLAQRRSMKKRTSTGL
T8 sequence (Q86UE8 whole entry, the tested form may be a part): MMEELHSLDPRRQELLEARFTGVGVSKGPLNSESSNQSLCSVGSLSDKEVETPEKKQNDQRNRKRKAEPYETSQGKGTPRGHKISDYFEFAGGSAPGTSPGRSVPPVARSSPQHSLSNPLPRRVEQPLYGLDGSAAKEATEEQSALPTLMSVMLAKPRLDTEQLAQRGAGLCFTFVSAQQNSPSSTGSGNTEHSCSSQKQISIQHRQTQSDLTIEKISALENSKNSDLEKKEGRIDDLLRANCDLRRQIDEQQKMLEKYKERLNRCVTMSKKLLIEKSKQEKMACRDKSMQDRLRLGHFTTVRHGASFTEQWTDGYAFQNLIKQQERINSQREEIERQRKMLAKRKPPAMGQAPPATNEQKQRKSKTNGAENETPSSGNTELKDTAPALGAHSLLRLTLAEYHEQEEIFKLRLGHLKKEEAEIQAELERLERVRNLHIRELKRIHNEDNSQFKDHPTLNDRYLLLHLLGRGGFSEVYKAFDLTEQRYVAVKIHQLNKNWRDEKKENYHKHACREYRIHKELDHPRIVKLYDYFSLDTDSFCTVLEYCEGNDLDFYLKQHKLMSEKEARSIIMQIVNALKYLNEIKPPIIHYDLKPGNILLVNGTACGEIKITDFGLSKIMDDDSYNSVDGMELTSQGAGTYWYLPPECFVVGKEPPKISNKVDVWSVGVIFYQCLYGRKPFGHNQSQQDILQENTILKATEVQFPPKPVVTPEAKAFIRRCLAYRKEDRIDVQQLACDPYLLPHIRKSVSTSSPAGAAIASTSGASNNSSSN
T19 sequence (P45983 whole entry, the tested form may be a part): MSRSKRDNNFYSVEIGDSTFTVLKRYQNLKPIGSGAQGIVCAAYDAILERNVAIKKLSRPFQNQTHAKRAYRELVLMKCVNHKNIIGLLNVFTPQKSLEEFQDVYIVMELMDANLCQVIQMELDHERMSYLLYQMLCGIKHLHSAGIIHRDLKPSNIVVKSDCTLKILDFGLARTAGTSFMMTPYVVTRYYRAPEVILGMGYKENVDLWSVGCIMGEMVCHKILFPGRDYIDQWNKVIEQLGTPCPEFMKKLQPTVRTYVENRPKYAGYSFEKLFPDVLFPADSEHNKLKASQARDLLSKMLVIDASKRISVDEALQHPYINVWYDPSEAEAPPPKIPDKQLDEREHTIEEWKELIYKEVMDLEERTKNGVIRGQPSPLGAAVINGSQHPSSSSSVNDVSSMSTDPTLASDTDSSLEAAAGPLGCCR
T13 sequence (P54756 25-1037): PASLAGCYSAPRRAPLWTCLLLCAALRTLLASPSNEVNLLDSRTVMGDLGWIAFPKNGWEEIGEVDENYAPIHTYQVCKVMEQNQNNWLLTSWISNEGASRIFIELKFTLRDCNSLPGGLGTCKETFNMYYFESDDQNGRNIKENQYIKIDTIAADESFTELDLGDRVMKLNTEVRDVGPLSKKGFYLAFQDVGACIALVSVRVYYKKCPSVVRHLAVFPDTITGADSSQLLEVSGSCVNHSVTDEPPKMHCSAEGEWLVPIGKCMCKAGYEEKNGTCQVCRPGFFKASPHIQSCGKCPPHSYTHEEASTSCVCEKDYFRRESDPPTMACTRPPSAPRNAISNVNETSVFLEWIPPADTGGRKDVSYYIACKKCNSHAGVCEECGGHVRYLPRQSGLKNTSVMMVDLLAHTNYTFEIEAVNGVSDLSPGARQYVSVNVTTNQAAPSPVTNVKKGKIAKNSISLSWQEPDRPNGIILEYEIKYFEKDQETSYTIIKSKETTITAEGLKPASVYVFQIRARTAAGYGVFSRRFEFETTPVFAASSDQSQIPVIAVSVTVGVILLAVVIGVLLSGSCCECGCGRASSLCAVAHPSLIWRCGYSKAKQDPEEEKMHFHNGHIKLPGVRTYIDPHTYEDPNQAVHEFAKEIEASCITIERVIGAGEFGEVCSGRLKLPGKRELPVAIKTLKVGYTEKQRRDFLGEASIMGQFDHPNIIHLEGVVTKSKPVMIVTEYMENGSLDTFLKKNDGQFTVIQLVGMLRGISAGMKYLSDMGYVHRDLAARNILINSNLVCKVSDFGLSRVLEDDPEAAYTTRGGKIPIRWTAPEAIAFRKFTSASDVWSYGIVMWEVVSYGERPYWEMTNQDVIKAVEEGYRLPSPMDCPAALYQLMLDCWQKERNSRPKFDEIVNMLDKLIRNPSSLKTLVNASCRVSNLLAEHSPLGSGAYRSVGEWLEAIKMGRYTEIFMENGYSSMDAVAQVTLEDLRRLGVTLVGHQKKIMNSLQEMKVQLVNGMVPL

Structure (SMILES): C=CC(=O)Nc1ccc(C(=O)N2CC[C@@H](Nc3ncc(C#N)cn3)C2)cc1 [Compound 4, (R)-N-(4-(3-((5-cyanopyrimidin-2-yl)amino)pyrrolidine-1-carbonyl)phenyl)acrylamide]
- inhibition at 1 µM [1]: 8%
- inhibition at 1 µM [2]: 3%
- inhibition at 1 µM [3]: 3%
- inhibition at 1 µM [4]: 0%
- inhibition at 1 µM [5]: 13%
- inhibition at 1 µM [6]: -3%
- inhibition at 1 µM [7]: 0%
- inhibition at 1 µM [8]: -10%
- inhibition at 1 µM [9]: 4%
- inhibition at 1 µM [10]: -17%
- inhibition at 1 µM [11]: 2%
- inhibition at 1 µM [12]: -7%
- inhibition at 1 µM [13]: -8%
- inhibition at 1 µM [14]: 12%
- inhibition at 1 µM [15]: 3%
- inhibition at 1 µM [16]: -3%
- inhibition at 1 µM [17]: 3%
- inhibition at 1 µM [18]: -12%
- inhibition at 1 µM [19]: 3%
- inhibition at 1 µM [20]: 3%
- inhibition at 1 µM [21]: 5%
- inhibition at 1 µM [22]: 14%
- inhibition at 1 µM [23]: 18%
- inhibition at 1 µM [24]: 1%
- pS2/S2 compared to treatment with the vehicle alone [25]: reduced the pS2/S2 at all time points
